# In patent US20090185973A1, “METHODS, COMPOSITIONS, UNIT DOSAGE FORMS, AND KITS FOR PHARMACOLOGIC STRESS TESTING WITH REDUCED SIDE EFFECTS” (ADENOBIO N.V., priority 2008, published 2009):
# What was measured:
# [1] = system: patients suffering from ischemic heart disease; experiment: Transthoracic doppler echocardiography (TTDE) blood flow velocity in LAD, sequential administration (Example 1); assay type: in vivo, human; details: mean; for Mean velocity Min / Peak velocity Min: at rest (basal); for Mean velocity Max / Peak velocity Max: under stress
# Description: In the combined administration, each of the two agents was administered at a dosage lower than its clinically preferred dosage when used as a single agent for myocardial perfusion imaging. Effects were measured using noninvasive transthoracic doppler echocardiography (TTDE).
# Primary efficacy end-points were peak and mean diastolic flow velocities (measured as reflecting coronary blood flow values). The secondary end-point was patient tolerance to the procedure. The protocol was designed as follows.
# Forty (40) consecutive patients suffering from ischemic heart disease were enrolled. Each patient served as their own control.
# […] Total doses are between about 4-6% of the lowest single-agent total dose of dipyridamole (i.e., 0.56 mg/kg, infused over a total of 4 minutes).
# This dose is half the standard single-agent dosage rate of 140 μg/kg/min.
# coronary patients = experiment: TTDE coronary reserve study, concurrent administration for two minutes (Example 3); assay type: in vivo, human; details: 31 patients
# Text: Primary efficacy end-points were peak and mean diastolic flow velocities (their measurements reflect coronary blood flow values). The secondary end-point was patient's tolerance to the procedure.
# [2] = before infusion, DIP5: SC = dipyridamole 28 μg/kg + adenosine 70 μg/kg/min, ADE = adenosine 140 μg/kg/min, 30 patients
# [3] = DIP4: SC = dipyridamole 35 μg/kg + adenosine 70 μg/kg/min, ADE = adenosine 140 μg/kg/min, 5 patients
# [4] = DIP6: SC = dipyridamole 23 μg/kg + adenosine 70 μg/kg/min, ADE = adenosine 140 μg/kg/min, 5 patients
# [5] = DIP4: SC = dipyridamole 35 μg/kg IV bolus then adenosine 70 μg/kg/min, ADE = adenosine alone 140 μg/kg/min, 5 patients
# [6] = DIP5: SC = dipyridamole 28 μg/kg IV bolus then adenosine 70 μg/kg/min 3 min, ADE = adenosine alone 140 μg/kg/min 3 min, 30 patients
# [7] = DIP6: SC = dipyridamole 23 μg/kg IV bolus then adenosine 70 μg/kg/min, ADE = adenosine alone 140 μg/kg/min, 5 patients
# [8] = cumulated, all 40 patients: SC = dipyridamole 23, 28 or 35 μg/kg bolus then adenosine 70 μg/kg/min, ADE = adenosine alone 140 μg/kg/min
# [9] = Delta = peak-BL, concurrent dipyridamole 10 + adenosine 70 μg/kg/min 2 min vs adenosine alone
# [10] = concurrent dipyridamole 10 + adenosine 70 μg/kg/min 2 min vs adenosine alone
smiles,measurement,setting,value
Nc1ncnc2c1ncn2[C@@H]1O[C@H](CO)[C@@H](O)[C@H]1O [adenosine],Mean velocity Min,[1]; [2],23.1 cm/s
same,Peak velocity Min,[1]; [2],30.6 cm/sec
same,Mean velocity Min,[1]; [3],22.2 cm/s
same,Peak velocity Min,[1]; [3],28 cm/sec
same,Mean velocity Min,[1]; [4],28.2 cm/s
same,Peak velocity Min,[1]; [4],37.6 cm/sec
same,Mean velocity Min,"[1]; cumulated, all 40 patients",23.7 cm/s
same,Peak velocity Min,"[1]; cumulated, all 40 patients",31.2 cm/sec
same,Mean velocity Max,[1]; [5],60.4 cm/s
same,Peak velocity Max,[1]; [5],80 cm/sec
same,Mean velocity Max,[1]; [6],61.4 cm/s
same,Peak velocity Max,[1]; [6],82.6 cm/sec
same,Mean velocity Max,[1]; [7],80.2 cm/s
same,Peak velocity Max,[1]; [7],107 cm/sec
same,Mean velocity Max,[1]; [8],63.6 cm/s
same,Peak velocity Max,[1]; [8],85.3 cm/sec
same,Delta mean velocity,coronary patients; [9],41.5 ± 15.3
same,Delta peak velocity,coronary patients; [9],54.4 ± 20.5
same,Peak velocity at baseline,coronary patients; at rest,33.0 ± 12.9
same,Mean velocity at baseline,"coronary patients; at rest, concurrent dipyridamole 10 μg/kg/min + adenosine 70 μg/kg/min 2 min vs adenosine alone 140 mg/kg/min (so in the source)",25.2 ± 8.9
same,Coronary reserve assessment using mean velocity,coronary patients; [10],2.79 ± 0.90
same,Coronary reserve assessment using peak velocity,coronary patients; [10],2.82 ± 0.96
